In patent US20130023504A1, “Modulation of Prostaglandin/Cyclooxygenase Metabolic Pathways” (HUNTER-FLEMING LIMITED, priority 2006, published 2013):

Tested on: rat spinal cord motor neurones
Assay: Neurite growth of spinal cord motor neurones in primary culture (anti β-Tubulin, In Cell Analyzer)
Type: cell-based
Method: Rat spinal motor neurones were prepared according to the method described by Martinou et al., 1992 (Martinou J C, Martinou I, Kato AC Cholinergic differentiation factor (CDF/LIF) promotes survival of isolated rat embryonic motoneurons in vitro. Neuron. 1992 April; 8(4):737-44). Briefly, pregnant female Wistar rats of 15 days gestation, were killed by cervical dislocation and the foetuses were removed from the uterus. Their spinal cords were removed and placed in ice-cold medium of Leibovitz (L15, Invitrogen, 11415-049) containing 1% of bovine serum albuminutes (BSA fatty acid free, Eurobio, Les Ulis, France, GXXBSA01-65). Meninges were carefully removed.
The spinal motor neurones were dissociated by trypsinisation for 20 minutes at 37° C. (trypsin EDTA 10× Invitrogen 15400054) diluted in PBS without calcium and magnesium (Invitrogen 2007-03). The reaction was stopped by the addition of Dulbecco Modified Eagle's Media (DMEM, Invitrogen 21969-035) containing DNase I grade II (0.1 mg/ml Roche diagnostic 104159) and 10% foetal calf serum (FCS, Invitrogen 10270098). The suspension was then mechanically dissociated by 3 passages through a 10 ml pipette. Cells were then centrifuged at 580 g for 10 minutes at room temperature. The pellet of dissociated cells was re-suspended in L15 medium and the resulting suspension was enriched in motor neurones by centrifugation at 180×g for 10 minutes at room temperature on a layer of BSA solution (3.5%) in L15 medium. The supernatant was discarded and the pellet was re-suspended in L15 medium supplemented with DNase I (1%). Then the suspension was layered over a cushion of Optiprep (d: 1.06 g/ml; Abcys, Paris, France; 1030061) and centrifuged at 335×g for 15 minutes at room temperature. The upper phase, containing the purified motor neurones, was collected, re-suspended with L15 medium and centrifuged at 800×g for 10 minutes at room temperature. The cell pellet was finally resuspended in a defined culture medium consisting of neurobasal medium supplemented with 2% B27, 2 mM L-Glutamine and Penicillin 50 Ul/ml-Streptomycin 50 μg/ml. Viable cells were counted in a Neubauer cytometer using the trypan blue exclusion test (Sigma T8154) then plated at 30 000 cells/well in 96 well-plates (pre-coated with poly-1-lysine; Nunclon, Invitrogen P5899) and cultured at 37° C. in a humidified air (95%) CO2 (5%) atmosphere.
The culture medium was changed into a defined culture medium after a 12 hours incubation period following the conditions described below:
BDNF 50 ng/ml and 10 ng/ml (in 0.1% DMSO)
After 6 hours, 12 hours and 24 hours of incubation with, cells were fixed for 5 minutes in an ethanol/acetic acid solution (95%/5%) at −20° C. and rinsed 3 times in PBS.
Motor neurones and sensory neurones were labelled by monoclonal anti β-Tubulin antibody (Sigma T8660) diluted at 1:400 in incubation solution (PBS with 5% of FCS and 0.1% of saponin, Sigma S-7900). This antibody specifically labels neurone cell bodies and neurites.
After 2 hours of incubation, the cells were washed in PBS and incubated with Alexa Fluor 488 goat anti mouse IgG (Molecular Probes A11001) diluted at 1:300 in incubation solution to reveal the 8-Tubulin III antibodies.
Analysis of the total length of neurones labelled with anti β-Tubulin antibodies (neurones) were carried out using In Cell Analyzer 1000 3.2.Workstation software.
The results were expressed in percentage compared to the vehicle. Comparison of groups was carried out using the unpaired T test.

## CC12CCC3C(C1CCC2=O)[C@@H](O)C[C@H]1C[C@@H](O)CCC31C (stereo partly drawn) [Compound 7β-OH-EPIA, 7β-hydroxy-EPIAndrosterone]
10^−4 M, 6 hours
  Neurites length per field, % Vehicle: 124%
  Neurites length per field, Mean: 315.9 μm
10^−4 M, 12 hours
  Neurites length per field, % Vehicle: 142%
  Neurites length per field, Mean: 602.4 μm
10^−4 M, 24 hours
  Neurites length per field, % Vehicle: 87%
  Neurites length per field, Mean: 188.4 μm
10^−5 M, 6 hours
  Neurites length per field, % Vehicle: 115%
  Neurites length per field, Mean: 293.3 μm
10^−5 M, 12 hours
  Neurites length per field, % Vehicle: 161%
  Neurites length per field, Mean: 680.9 μm
10^−5 M, 24 hours
  Neurites length per field, % Vehicle: 93%
  Neurites length per field, Mean: 200.9 μm
10^−6 M, 6 hours
  Neurites length per field, % Vehicle: 139%
  Neurites length per field, Mean: 354.5 μm
10^−6 M, 12 hours
  Neurites length per field, % Vehicle: 137%
  Neurites length per field, Mean: 580.3 μm
10^−6 M, 24 hours
  Neurites length per field, % Vehicle: 104%
  Neurites length per field, Mean: 224.8 μm
10^−7 M, 6 hours
  Neurites length per field, % Vehicle: 138%
  Neurites length per field, Mean: 350.5 μm
10^−7 M, 12 hours
  Neurites length per field, % Vehicle: 137%
  Neurites length per field, Mean: 956.7 μm
10^−7 M, 24 hours
  Neurites length per field, % Vehicle: 126%
  Neurites length per field, Mean: 271.7 μm
10^−8 M, 6 hours
  Neurites length per field, % Vehicle: 150%
  Neurites length per field, Mean: 382.4 μm
10^−8 M, 12 hours
  Neurites length per field, % Vehicle: 179%
  Neurites length per field, Mean: 759.0 μm
10^−8 M, 24 hours
  Neurites length per field, % Vehicle: 174%
  Neurites length per field, Mean: 374.6 μm
10^−9 M, 6 hours
  Neurites length per field, % Vehicle: 188%
  Neurites length per field, Mean: 479.3 μm
10^−9 M, 12 hours
  Neurites length per field, % Vehicle: 180%
  Neurites length per field, Mean: 764.9 μm
10^−9 M, 24 hours
  Neurites length per field, % Vehicle: 123%
  Neurites length per field, Mean: 265.9 μm
